Reference: patent US20260217672A1, “BENZAMIDE COMPOUNDS FOR TREATMENT OF BACTERIAL INFECTIONS” (Hoffmann-La Roche Inc., priority 2022, published 2026)
≈ marks a conversion by molar mass, not a printed value.

What was measured:
[1] = test system: Klebsiella pneumonia ATCC 43816; assay: Minimal Inhibitory Concentration (MIC) broth dilution assay; type: cell-based; conditions: Klebsiella pneumoniae, ATCC43816, 20 h, read-out: MIC Klebsiella pneumoniae ATCC43816
Description: (§1) The antibacterial activity of the compounds of the present invention was evaluated against the commonly used quality control strain Escherichia coli ATCC 25922 and the rifampin-resistant mutant strain Klebsiella pneumonia ATCC 43816. Both were originally derived from human clinical samples and are available from ATCC (American Type Culture Collection). The in vitro potency of compounds to inhibit Escherichia coli (ATCC 25922) and Klebsiella pneumonia (ATCC 43816) growth was assessed by the MIC (Minimal Inhibitory Concentration) broth dilution method. Specifically compound dilutions were prepared from 10 mM DMSO stock solutions as follows: i) serial 2-fold dilution in 20 μL DMSO were prepared in a master plate (Greiner, Cat No: 651201), ii) 180 μL sterile distilled water was added to each aliquot and iii) 10 μL diluted compounds were transferred into a new assay plate (Costar, 3599).
(§2) Vials of each test microorganisms were maintained frozen in the vapor phase of a liquid nitrogen freezer. Single-use frozen vials of the two strains Escherichia coli ATCC 25922 (KWIKSTIK, 0335K) and Klebsiella pneumonia ATCC 43816, with predetermined CFU/mL, were taken out from the freezer, thawed at room temperature, and diluted in Cation-Adjusted Mueller Hinton Broth (CAMHB) to achieve a final inoculum of 5×10^5 CFU/mL. 90 μL bacteria containing broth was dispensed to the assay plate containing the pre-dispensed compound dilutions and mixed by pipetting 5 times.
(§3) Then the assay plates were incubated for 20 hours at 35° C. in ambient air. Following incubation, the MIC ([…]), the lowest concentration of drug that inhibits visible growth of the microorganism was read with the help of a magnification mirror and recorded.

[2] = test system: Escherichia coli ATCC 25922; assay: as above; type: cell-based; conditions: ATCC25922, 20 h, read-out: MIC Escherichia coli ATCC 25922
Description: as §1, §2, §3

Structure (SMILES)	MIC [1]	MIC [2]
O=C(Nc1ccc(S(=O)(=O)N2CCN(c3cc(C(F)(F)F)cc(Cl)n3)CC2)cc1)c1cccc(N2C[C@H]3CN[C@H]3C2)c1 (stereo in doubt) [Example 052, N-[4-[4-[6-Chloro-4-(trifluoromethyl)-2-pyridyl]piperazin-1-yl]sulfonylphenyl]-3-[3,6-diazabicyclo[3.2.0]heptan-3-yl]benzamide]	2.3 µg/mL (≈ 3.7 µM)	1.1 µg/mL (≈ 1.77 µM)
NCCC1CCCN1Cc1ccc(C(=O)Nc2ccc(S(=O)(=O)N3CCN(c4cc(C(F)(F)F)cc(Cl)n4)CC3)cc2)cc1 (stereo in doubt) [Example 072, N-[4-[4-[6-chloro-4-(trifluoromethyl)-2-pyridyl]piperazin-1-yl]sulfonylphenyl]-4-[[(2S)-2-(2-aminoethyl)pyrrolidin-1-yl]methyl]benzamide]	2 µg/mL (≈ 3.07 µM)	1 µg/mL (≈ 1.54 µM)
NCCCNCc1ccc(C(=O)Nc2ccc(S(=O)(=O)N3CCN(c4cc(C(F)(F)F)ccn4)CC3)cc2)cc1 [Example 002, 4-[(3-Aminopropylamino)methyl]-N-[4-[4-[4-(trifluoromethyl)-2-pyridyl]piperazin-1-yl]sulfonylphenyl]benzamide]	5.4 µg/mL (≈ 9.36 µM)	1.8 µg/mL (≈ 3.12 µM)
NCCCNCc1ccc(C(=O)Nc2ccc(S(=O)(=O)N3CCN(c4cc(C(F)(F)F)c(Cl)cn4)CC3)cc2)cc1 [Example 003, 4-[(3-Aminopropylamino)methyl]-N-[4-[4-[5-chloro-4-(trifluoromethyl)-2-pyridyl]piperazin-1-yl]sulfonylphenyl]benzamide]	3.8 µg/mL (≈ 6.22 µM)	1.4 µg/mL (≈ 2.29 µM)
NCCCNCc1ccc(C(=O)Nc2ccc(S(=O)(=O)N3CCN(c4cc(Cl)cc(C(F)(F)F)c4)CC3)cc2)cc1 [Example 004, 4-[(3-Aminopropylamino)methyl]-N-[4-[4-[3-chloro-5-(trifluoromethyl)phenyl]piperazin-1-yl]sulfonylphenyl]benzamide]	3.8 µg/mL (≈ 6.23 µM)	1.9 µg/mL (≈ 3.11 µM)
NCCCNCc1ccc(C(=O)Nc2ccc(S(=O)(=O)N3CCN(c4cc(C(F)(F)F)nc(Cl)n4)CC3)cc2)cc1 [Example 005, 4-[(3-Aminopropylamino)methyl]-N-[4-[4-[2-chloro-6-(trifluoromethyl)pyrimidin-4-yl]piperazin-1-yl]sulfonylphenyl]benzamide]	7.7 µg/mL (≈ 12.6 µM)	1.9 µg/mL (≈ 3.1 µM)
NCCCNCc1ccc(C(=O)Nc2ccc(S(=O)(=O)N3CCN(c4cc(C(F)(F)F)nc(N)n4)CC3)cc2)cc1 [Example 006, 4-[(3-Aminopropylamino)methyl]-N-[4-[4-[2-amino-6-(trifluoromethyl)pyrimidin-4-yl]piperazin-1-yl]sulfonylphenyl]benzamide]	15 µg/mL (≈ 25.3 µM)	3.7 µg/mL (≈ 6.24 µM)
NCCCNCc1ccc(C(=O)Nc2ccc(S(=O)(=O)N3CCN(c4cc(C(F)(F)F)c(C5CC5)cn4)CC3)cc2)cc1 [Example 008, 4-[(3-Aminopropylamino)methyl]-N-[4-[4-[5-cyclopropyl-4-(trifluoromethyl)-2-pyridyl]piperazin-1-yl]sulfonylphenyl]benzamide]	7.7 µg/mL (≈ 12.5 µM)	–
Cc1cnc(N2CCN(S(=O)(=O)c3ccc(NC(=O)c4ccc(CCNCCCN)cc4)cc3)CC2)cc1C(F)(F)F [Example 013, 4-[2-(3-Aminopropylamino)ethyl]-N-[4-[4-[5-methyl-4-(trifluoromethyl)-2-pyridyl]piperazin-1-yl]sulfonylphenyl]benzamide]	–	0.94 µg/mL (≈ 1.55 µM)
O=C1CC(CNCc2cccc(C(=O)Nc3ccc(S(=O)(=O)N4CCN(c5cc(C(F)(F)F)cc(Cl)n5)CC4)cc3)c2)CN1 (stereo not drawn) [Example 085, N-[4-[4-[6-chloro-4-(trifluoromethyl)-2-pyridyl]piperazin-1-yl]sulfonylphenyl]-3-[[(5-oxopyrrolidin-3-yl)methylamino]methyl]benzamide]	–	1.2 µg/mL (≈ 1.84 µM)
CN(C)C(=O)CCNCc1cccc(C(=O)Nc2ccc(S(=O)(=O)N3CCN(c4cc(C(F)(F)F)cc(Cl)n4)CC3)cc2)c1 [Example 086, N-[4-[4-[6-chloro-4-(trifluoromethyl)-2-pyridyl]piperazin-1-yl]sulfonylphenyl]-3-[[[3-(dimethylamino)-3-oxo-propyl]amino]methyl]benzamide]	–	2.4 µg/mL (≈ 3.67 µM)
